Assay results: patent publication US7635722B1, “Chemical induced intracellular hyperthermia” (priority 1998, dated 2009)

Tests used:
glioma = assay: DNP enhanced PET-FDG scan, glioma (Example 7); assay type: in vivo, human; set-up: key to metabolic grade of FDG uptake, selected target / metabolic grade, hypermetabolic component in the tumor area / metabolic grade, remaining viable tumor: I: FDG uptake less than contralateral white matter; II: uptake between the levels in contralateral white and gray matter; III: FDG uptake equal to or greater than in contralateral gray matter
From the text: Pretreatment protocol: three days prior to DNP dosing and repeat PET-FDG scan, the patient's dosage of phenyloin was increased from 100-mg three times daily to 200-mg three times a day. The same positron emission tomogram, a CTI-Siemens 933/08-12 which provides a 6.75-mm adjacent slices and in-plane spatial resolution (full-width at half maximum) of ˜5 mm, was to be used. The highest level of non to DNP stimulated FDG uptake in the tumor area was to be compared and qualitatively graded by two radiologists. Independently, each investigator was to visually evaluate the positron emission tomogram and use the following metabolic grading scale: I, FDG uptake less than contralateral white matter; II, uptake between the levels in contralateral white and gray matter; III, FDG uptake equal to or greater than in contralateral gray matter.
Diagnostic—treatment protocol: the patient was given a 300 mg capsule of DNP (approximately 4 mg/kg body weight) three hours prior to undergoing a PET-FDG scan. Forty minutes prior to the emission scan they were intravenously injected with a bolus of FDG according to standard methodology. Immediately prior to the 20-minute emission scan the patients VO2 uptake was 40% above that at baseline. The patients DNP/VO2 flow chart is FIG. 24.

breast lesion = assay: DNP enhanced infrared imaging, breast carcinoma (Example 8); assay type: in vivo, human
Method: Prediagnostic protocol: the patient was disrobed to the waist and sat with their hands interlocked over their head for a five minute equilibration period in a draft free, thermally controlled room—kept between 18° C. and 20° C. […] A baseline of 4 images consisting of an anterior, undersurface and 2 lateral views of each breast were generated by an integrated infrared imaging station consisting of a scanning mirror optical system containing a mercury-cadmium-telluride detector (Bales Scientific, CA). […] Images were stored on retrievable laser discs.
Diagnostic treatment protocol: after the above baseline studies were performed, the patient was given an initial intravenous dose of 1 mg/kg DNP and observed for a period of 20 minutes. An additional 2 mg/kg of DNP was then administered and 30 minutes thereafter, they were taken to the thermally controlled room for repeat DNP-enhanced infrared imaging. […] Repeat infrared images were then obtained under the exact protocol used for obtaining baseline studies.

Normal rat liver = assay: reactive oxygen species formation in rat liver infused with DNP; details: upon cessation of uncoupling (FIG. 9)
[1] = tested on: inner mitochondrial membrane; details: lowered from −180; cited from earlier work
[2] = DNP enhancement, one year after diagnosis and therapy

O=[N+]([O-])c1ccc(O)c([N+](=O)[O-])c1 [DNP, 2,4-dinitrophenol]
DNP enhanced PET-FDG scan finding (glioma; 300 mg oral DNP, none without DNP): two areas of hypermetabolism
metabolic grade of FDG uptake, selected target (glioma; DNP enhanced PET-FDG scan): III
metabolic grade, hypermetabolic component in the tumor area (glioma; [2]): II
metabolic grade, remaining viable tumor (glioma; [2]): I
bilateral global breast temperature increase (breast lesion; DNP enhanced infrared imaging): approximately 0.5 °C
increase in temperature in the palpable right breast lesion (breast lesion; DNP enhanced infrared imaging): 2.5 °C
increase in heat production above the DNP baseline increase (breast lesion; lesion versus global breast increase of 0.5° C.): 5 fold
formation of reactive oxygen species (Normal rat liver): threefold
inner mitochondrial membrane potential [1]: −145 mV
